In the supplement of paper PMC8882468:

Tested on: HCI-024 (organoid from a breast cancer xenograft)
Assay: CTG-3D luminescence at 96 h relative to day-0 seeding control (ratio to day 0); higher = more growth / less cytotoxicity; PDxO 3D drug screen, 96 h, CTG-3D normalised to day-0 seeding control.
Details: 625 fM; days in culture: 122

| Structure (SMILES) | CTG-3D luminescence at 96 h |
| --- | --- |
| NC(=O)c1cccc2cn(-c3ccc([C@@H]4CCCNC4)cc3)nc12 [niraparib] | 2.15 |
| Cc1cc(Nc2ncnc3ccc(NC4=NC(C)(C)CO4)cc23)ccc1Oc1ccn2ncnc2c1 [tucatinib] | 2.27 |
| CCN(c1cc(C#CCN2CCOCC2)cc(C(=O)NCc2c(C)cc(C)[nH]c2=O)c1C)[C@H]1CC[C@H](N(C)CCOC)CC1 | 2.18 |

Same assay, conditions: 625 fM; days in culture: 163

| Structure (SMILES) | CTG-3D luminescence at 96 h |
| --- | --- |
| NC1(C(=O)N[C@@H](CCO)c2ccc(Cl)cc2)CCN(c2nc[nH]c3nccc2-3)CC1 [capivasertib] | 2.73 |
| CC(C)n1nc(-c2ccc3oc(N)nc3c2)c2c(N)ncnc21 [sapanisertib] | 1.85 |
| O=C(c1ccc(F)c(F)c1Nc1ccc(I)cc1F)N1CC(O)([C@@H]2CCCCN2)C1 [cobimetinib] | 2.15 |
| C[C@H](NC(=O)CCC(F)(F)F)C(=O)N[C@@H]1C(=O)N(CCO)c2ncccc2-c2ccccc21 [crenigacestat] | 1.86 |
| Cc1cc(Nc2ncc(Cl)c(Nc3ccccc3S(=O)(=O)C(C)C)n2)c(OC(C)C)cc1C1CCNCC1 [ceritinib] | 2.78 |
| CS(=O)(=O)c1ccc(C(=O)Nc2ccc(Cl)c(-c3ccccn3)c2)c(Cl)c1 [vismodegib] | 2.01 |
| NC(=O)c1cccc2cn(-c3ccc([C@@H]4CCCNC4)cc3)nc12 [niraparib] | 2.44 |
| Cc1cc(Nc2ncnc3ccc(NC4=NC(C)(C)CO4)cc23)ccc1Oc1ccn2ncnc2c1 [tucatinib] | 2.18 |
| CCN(c1cc(C#CCN2CCOCC2)cc(C(=O)NCc2c(C)cc(C)[nH]c2=O)c1C)[C@H]1CC[C@H](N(C)CCOC)CC1 | 1.9 |

Tested on: HCI-019 (organoid from a triple-negative breast cancer xenograft)
Assay: as above
Details: 12.5 pM; days in culture: 110

| Structure (SMILES) | CTG-3D luminescence at 96 h |
| --- | --- |
| NC1(C(=O)N[C@@H](CCO)c2ccc(Cl)cc2)CCN(c2nc[nH]c3nccc2-3)CC1 [capivasertib] | 1.22 |
| CC(C)n1nc(-c2ccc3oc(N)nc3c2)c2c(N)ncnc21 [sapanisertib] | 1.88 |
| O=C(c1ccc(F)c(F)c1Nc1ccc(I)cc1F)N1CC(O)([C@@H]2CCCCN2)C1 [cobimetinib] | 1.61 |
| C[C@H](NC(=O)CCC(F)(F)F)C(=O)N[C@@H]1C(=O)N(CCO)c2ncccc2-c2ccccc21 [crenigacestat] | 1.5 |
| Cc1cc(Nc2ncc(Cl)c(Nc3ccccc3S(=O)(=O)C(C)C)n2)c(OC(C)C)cc1C1CCNCC1 [ceritinib] | 1.94 |
| CS(=O)(=O)c1ccc(C(=O)Nc2ccc(Cl)c(-c3ccccn3)c2)c(Cl)c1 [vismodegib] | 1.59 |
| NC(=O)c1cccc2cn(-c3ccc([C@@H]4CCCNC4)cc3)nc12 [niraparib] | 1.64 |
| Cc1cc(Nc2ncnc3ccc(NC4=NC(C)(C)CO4)cc23)ccc1Oc1ccn2ncnc2c1 [tucatinib] | 2.14 |
| CCN(c1cc(C#CCN2CCOCC2)cc(C(=O)NCc2c(C)cc(C)[nH]c2=O)c1C)[C@H]1CC[C@H](N(C)CCOC)CC1 | 2.05 |

Same assay, conditions: 12.5 pM; days in culture: 131

| Structure (SMILES) | CTG-3D luminescence at 96 h |
| --- | --- |
| NC1(C(=O)N[C@@H](CCO)c2ccc(Cl)cc2)CCN(c2nc[nH]c3nccc2-3)CC1 [capivasertib] | 2.99 |
| CC(C)n1nc(-c2ccc3oc(N)nc3c2)c2c(N)ncnc21 [sapanisertib] | 2.52 |
| O=C(c1ccc(F)c(F)c1Nc1ccc(I)cc1F)N1CC(O)([C@@H]2CCCCN2)C1 [cobimetinib] | 2.19 |
| C[C@H](NC(=O)CCC(F)(F)F)C(=O)N[C@@H]1C(=O)N(CCO)c2ncccc2-c2ccccc21 [crenigacestat] | 2.19 |
| Cc1cc(Nc2ncc(Cl)c(Nc3ccccc3S(=O)(=O)C(C)C)n2)c(OC(C)C)cc1C1CCNCC1 [ceritinib] | 2.4 |
| CS(=O)(=O)c1ccc(C(=O)Nc2ccc(Cl)c(-c3ccccn3)c2)c(Cl)c1 [vismodegib] | 2.17 |
| NC(=O)c1cccc2cn(-c3ccc([C@@H]4CCCNC4)cc3)nc12 [niraparib] | 2.29 |
| Cc1cc(Nc2ncnc3ccc(NC4=NC(C)(C)CO4)cc23)ccc1Oc1ccn2ncnc2c1 [tucatinib] | 2.25 |
| CCN(c1cc(C#CCN2CCOCC2)cc(C(=O)NCc2c(C)cc(C)[nH]c2=O)c1C)[C@H]1CC[C@H](N(C)CCOC)CC1 | 2.63 |

Same assay, conditions: 12.5 pM; days in culture: 152

| Structure (SMILES) | CTG-3D luminescence at 96 h |
| --- | --- |
| NC1(C(=O)N[C@@H](CCO)c2ccc(Cl)cc2)CCN(c2nc[nH]c3nccc2-3)CC1 [capivasertib] | 2.96 |
| CC(C)n1nc(-c2ccc3oc(N)nc3c2)c2c(N)ncnc21 [sapanisertib] | 4.18 |
| O=C(c1ccc(F)c(F)c1Nc1ccc(I)cc1F)N1CC(O)([C@@H]2CCCCN2)C1 [cobimetinib] | 3.36 |
| C[C@H](NC(=O)CCC(F)(F)F)C(=O)N[C@@H]1C(=O)N(CCO)c2ncccc2-c2ccccc21 [crenigacestat] | 3.73 |
| Cc1cc(Nc2ncc(Cl)c(Nc3ccccc3S(=O)(=O)C(C)C)n2)c(OC(C)C)cc1C1CCNCC1 [ceritinib] | 2.83 |
| CS(=O)(=O)c1ccc(C(=O)Nc2ccc(Cl)c(-c3ccccn3)c2)c(Cl)c1 [vismodegib] | 3.1 |
| NC(=O)c1cccc2cn(-c3ccc([C@@H]4CCCNC4)cc3)nc12 [niraparib] | 2.88 |
| Cc1cc(Nc2ncnc3ccc(NC4=NC(C)(C)CO4)cc23)ccc1Oc1ccn2ncnc2c1 [tucatinib] | 3.48 |
| CCN(c1cc(C#CCN2CCOCC2)cc(C(=O)NCc2c(C)cc(C)[nH]c2=O)c1C)[C@H]1CC[C@H](N(C)CCOC)CC1 | 2.5 |

Same assay, conditions: 0.00025 µM; days in culture: 110

| Structure (SMILES) | CTG-3D luminescence at 96 h |
| --- | --- |
| NC1(C(=O)N[C@@H](CCO)c2ccc(Cl)cc2)CCN(c2nc[nH]c3nccc2-3)CC1 [capivasertib] | 1.74 |
| CC(C)n1nc(-c2ccc3oc(N)nc3c2)c2c(N)ncnc21 [sapanisertib] | 1.46 |
| O=C(c1ccc(F)c(F)c1Nc1ccc(I)cc1F)N1CC(O)([C@@H]2CCCCN2)C1 [cobimetinib] | 2.17 |
| C[C@H](NC(=O)CCC(F)(F)F)C(=O)N[C@@H]1C(=O)N(CCO)c2ncccc2-c2ccccc21 [crenigacestat] | 1.45 |
| Cc1cc(Nc2ncc(Cl)c(Nc3ccccc3S(=O)(=O)C(C)C)n2)c(OC(C)C)cc1C1CCNCC1 [ceritinib] | 1.72 |
| CS(=O)(=O)c1ccc(C(=O)Nc2ccc(Cl)c(-c3ccccn3)c2)c(Cl)c1 [vismodegib] | 1.68 |
| NC(=O)c1cccc2cn(-c3ccc([C@@H]4CCCNC4)cc3)nc12 [niraparib] | 1.35 |
| Cc1cc(Nc2ncnc3ccc(NC4=NC(C)(C)CO4)cc23)ccc1Oc1ccn2ncnc2c1 [tucatinib] | 1.65 |
| CCN(c1cc(C#CCN2CCOCC2)cc(C(=O)NCc2c(C)cc(C)[nH]c2=O)c1C)[C@H]1CC[C@H](N(C)CCOC)CC1 | 1.49 |

Same assay, conditions: 0.00025 µM; days in culture: 131

| Structure (SMILES) | CTG-3D luminescence at 96 h |
| --- | --- |
| NC1(C(=O)N[C@@H](CCO)c2ccc(Cl)cc2)CCN(c2nc[nH]c3nccc2-3)CC1 [capivasertib] | 3.67 |
| CC(C)n1nc(-c2ccc3oc(N)nc3c2)c2c(N)ncnc21 [sapanisertib] | 3.19 |
| O=C(c1ccc(F)c(F)c1Nc1ccc(I)cc1F)N1CC(O)([C@@H]2CCCCN2)C1 [cobimetinib] | 3.62 |
| C[C@H](NC(=O)CCC(F)(F)F)C(=O)N[C@@H]1C(=O)N(CCO)c2ncccc2-c2ccccc21 [crenigacestat] | 3.56 |
| Cc1cc(Nc2ncc(Cl)c(Nc3ccccc3S(=O)(=O)C(C)C)n2)c(OC(C)C)cc1C1CCNCC1 [ceritinib] | 3 |
| CS(=O)(=O)c1ccc(C(=O)Nc2ccc(Cl)c(-c3ccccn3)c2)c(Cl)c1 [vismodegib] | 2.54 |
| NC(=O)c1cccc2cn(-c3ccc([C@@H]4CCCNC4)cc3)nc12 [niraparib] | 3.06 |
| Cc1cc(Nc2ncnc3ccc(NC4=NC(C)(C)CO4)cc23)ccc1Oc1ccn2ncnc2c1 [tucatinib] | 3.22 |
| CCN(c1cc(C#CCN2CCOCC2)cc(C(=O)NCc2c(C)cc(C)[nH]c2=O)c1C)[C@H]1CC[C@H](N(C)CCOC)CC1 | 3.96 |

Same assay, conditions: 0.00025 µM; days in culture: 152

| Structure (SMILES) | CTG-3D luminescence at 96 h |
| --- | --- |
| NC1(C(=O)N[C@@H](CCO)c2ccc(Cl)cc2)CCN(c2nc[nH]c3nccc2-3)CC1 [capivasertib] | 2.9 |
| CC(C)n1nc(-c2ccc3oc(N)nc3c2)c2c(N)ncnc21 [sapanisertib] | 3.66 |
| O=C(c1ccc(F)c(F)c1Nc1ccc(I)cc1F)N1CC(O)([C@@H]2CCCCN2)C1 [cobimetinib] | 3.14 |
| C[C@H](NC(=O)CCC(F)(F)F)C(=O)N[C@@H]1C(=O)N(CCO)c2ncccc2-c2ccccc21 [crenigacestat] | 3.39 |
| Cc1cc(Nc2ncc(Cl)c(Nc3ccccc3S(=O)(=O)C(C)C)n2)c(OC(C)C)cc1C1CCNCC1 [ceritinib] | 2.4 |
| CS(=O)(=O)c1ccc(C(=O)Nc2ccc(Cl)c(-c3ccccn3)c2)c(Cl)c1 [vismodegib] | 2.87 |
| NC(=O)c1cccc2cn(-c3ccc([C@@H]4CCCNC4)cc3)nc12 [niraparib] | 2.16 |
| Cc1cc(Nc2ncnc3ccc(NC4=NC(C)(C)CO4)cc23)ccc1Oc1ccn2ncnc2c1 [tucatinib] | 3.89 |
| CCN(c1cc(C#CCN2CCOCC2)cc(C(=O)NCc2c(C)cc(C)[nH]c2=O)c1C)[C@H]1CC[C@H](N(C)CCOC)CC1 | 4.04 |

Same assay, conditions: 0.005 µM; days in culture: 110

| Structure (SMILES) | CTG-3D luminescence at 96 h |
| --- | --- |
| NC1(C(=O)N[C@@H](CCO)c2ccc(Cl)cc2)CCN(c2nc[nH]c3nccc2-3)CC1 [capivasertib] | 1.4 |
| CC(C)n1nc(-c2ccc3oc(N)nc3c2)c2c(N)ncnc21 [sapanisertib] | 1.02 |
| O=C(c1ccc(F)c(F)c1Nc1ccc(I)cc1F)N1CC(O)([C@@H]2CCCCN2)C1 [cobimetinib] | 1.42 |
